Results as given in the NIST ThermoML archive (doi:10.1016/j.jct.2018.12.006).

Details: 101.33 kPa, Crystal; for molar entropy: Small (less than 1 g) adiabatic calorimetry; for mass density: X-ray diffraction

C[N+](C)(C)C[C@H](O)CC(=O)[O-] [(R)-3-hydroxy-4-(trimethylammonio)butanoate]
Details | mass density [kg/m3] | molar entropy [J/K/mol]
5 K | – | 0.0967
10 K | – | 0.77
15 K | – | 2.46
20 K | – | 5.34
25 K | – | 8.973
30 K | – | 13
35 K | – | 17.28
40 K | – | 21.73
45 K | – | 26.33
50 K | – | 31.04
60 K | – | 40.65
70 K | – | 50.3
80 K | – | 59.86
90 K | – | 69.27
100 K | – | 78.52
110 K | – | 87.63
120 K | – | 96.63
130 K | – | 105.5
140 K | – | 114.3
150 K | 1256 | 122.9
160 K | – | 131.4
170 K | – | 139.9
175 K | 1250 | –
180 K | – | 148.2
190 K | – | 156.4
200 K | 1253 | 164.5
210 K | – | 172.5
220 K | – | 180.3
225 K | 1247 | –
230 K | – | 188.1
240 K | – | 195.9
250 K | 1247 | 203.6
260 K | – | 211.2
270 K | – | 218.8
273.15 K | – | 221.2
275 K | 1250 | –
280 K | – | 226.4
290 K | – | 233.9
298.15 K | – | 240.1
300 K | 1245 | 241.5
310 K | – | 249
320 K | – | 256.5
325 K | 1236 | –
330 K | – | 264
340 K | – | 271.5
350 K | 1239 | 279
375 K | 1242 | –
400 K | 1236 | –
425 K | 1236 | –
